From the NIST ThermoML archive (doi:10.1016/j.fluid.2005.09.025)
± gives the expanded uncertainty stated by the source.

Settings: 298.15 K, 101.33 kPa, Liquid

Row | Structure (SMILES) | mass density | mass density (Vibrating tube method)
1 | CC1CCCCC1 [methylcyclohexane] | 764.96 ± 0.35 kg/m3 | –
2 | CN(C)C=O [dimethylformamide] | – | 943.81 ± 0.09 kg/m3
3 | CCCC(C)C [2-methylpentane] | – | 648.45 ± 0.22 kg/m3
4 | CO [methanol] | – | 786.55 ± 0.16 kg/m3
